Test: Endotoxin (LPS) adsorption capacity and efficiency of sorbents
Assay type: binding
Conditions: 96,528 ± 9,726 EU used, about 38-39.5 mg sorbent, n=6

In the case of Polymycin B, -sulfate [PMB], the “Adsorption Capacity (EU/mg) ± SD” value is reported as 1,746 ± 265 EU/mg, the “Adsorption Efficiency, E (%) ± SD” value is reported as 69.66 ± 10.58% and the “LPS Conc. Post Incubation (EU/ml) ± SD” value is reported as 760 ± 265 EU/ml. For the same substance, the “Log10 Reduction ± SD” value was 0.538 ± 0.142.

— US20220142914A1, “SUSPENSION FORMULATIONS OF HIGH LOAD DISPERSIONS” (Austin Research Labs Corp., priority 2018, published 2022)
